Laboratory results reported in patent publication US10131652B2, “Pyrimidinyloxy benzene derivatives as herbicides” (E. I. DU PONT DE NEMOURS AND COMPANY, priority 2014, dated 2018).

Key:
Format in all cases: in vivo
[1] = system: blackgrass (Alopecurus myosuroides); test: Test B postemergence plant response
Source text: (§1) At the same time, plants selected from these crop and weed species and also blackgrass (Alopecurus myosuroides), and galium (catchweed bedstraw, Galium aparine) were planted in pots containing the same blend of loam soil and sand and treated with postemergence applications of test chemicals formulated in the same manner. Plants ranged in height from 2 to 10 cm and were in the one- to two-leaf stage for the postemergence treatment. Treated plants and untreated controls were maintained in a greenhouse for approximately 10 days, after which time all treated plants were compared to untreated controls and visually evaluated for injury. Plant response ratings, summarized in Table B, are based on a 0 to 100 scale where 0 is no effect and 100 is complete control. A dash (-) response means no test result.

[2] = system: galium (catchweed bedstraw, Galium aparine); test: Test B postemergence plant response
Source text: as §1

[3] = system: small-flower umbrella sedge (Cyperus difformis); test: Test C flooded paddy test plant response; conditions: Flood, 250 g ai/ha; scale of 0 to 100 where 0 is no effect and 100 is complete control; 13 to 15 days
Experimental: (§2) Plant species in the flooded paddy test selected from rice (Oryza sativa), small-flower umbrella sedge (Cyperus difformis), ducksalad (Heteranthera limosa), and bamyardgrass (Echinochloa crus-galli) were grown to the 2-leaf stage for testing. At time of treatment, test pots were flooded to 3 cm above the soil surface, treated by application of test compounds directly to the paddy water, and then maintained at that water depth for the duration of the test. Treated plants and controls were maintained in a greenhouse for 13 to 15 days, after which time all species were compared to controls and visually evaluated. Plant response ratings, summarized in Table C, are based on a scale of 0 to 100 where 0 is no effect and 100 is complete control. A dash (-) response means no test result.

[4] = system: barnyardgrass (Echinochloa crus-galli); test: Test C flooded paddy test plant response; conditions: Flood, 250 g ai/ha; scale of 0 to 100 where 0 is no effect and 100 is complete control; 13 to 15 days
Experimental: as §2

rice (Oryza sativa) = test: Test C flooded paddy test plant response; conditions: Flood, 250 g ai/ha; scale of 0 to 100 where 0 is no effect and 100 is complete control; 13 to 15 days
Experimental: as §2

[5] = system: ducksalad (Heteranthera limosa); test: Test C flooded paddy test plant response; conditions: Flood, 250 g ai/ha; scale of 0 to 100 where 0 is no effect and 100 is complete control; 13 to 15 days
Experimental: as §2

[6] = system: barnyardgrass (Echinochloa crus-galli); test: Test B pre-/postemergence plant response
Source text: as §1, with “Seeds of plant species selected from bamyardgrass (Echinochloa crus-galli), kochia (Kochia scoparia), ragweed (common ragweed, Ambrosia elatior), Italian ryegrass (Lolium multiflorum), large (Lg) crabgrass (Digitaria sanguinalis), giant foxtail (Setaria faberii), momingglory (Ipomoea spp.), pigweed (Amaranthus retroflexus), velvetleaf (Abutilon theophrasti), wheat (Triticum aestivum), and corn (Zea mays) were planted into a blend of loam soil and sand and treated preemergence with a directed soil spray using test chemicals formulated in a non-phytotoxic solvent mixture which included a surfactant. At” for “At”

[7] = system: pigweed (Amaranthus retroflexus); test: Test B pre-/postemergence plant response
Source text: as §1, with “Seeds of plant species selected from bamyardgrass (Echinochloa crus-galli), kochia (Kochia scoparia), ragweed (common ragweed, Ambrosia elatior), Italian ryegrass (Lolium multiflorum), large (Lg) crabgrass (Digitaria sanguinalis), giant foxtail (Setaria faberii), momingglory (Ipomoea spp.), pigweed (Amaranthus retroflexus), velvetleaf (Abutilon theophrasti), wheat (Triticum aestivum), and corn (Zea mays) were planted into a blend of loam soil and sand and treated preemergence with a directed soil spray using test chemicals formulated in a non-phytotoxic solvent mixture which included a surfactant. At” for “At”

[8] = system: Italian ryegrass (Lolium multiflorum); test: Test B pre-/postemergence plant response
Source text: as §1, with “Seeds of plant species selected from bamyardgrass (Echinochloa crus-galli), kochia (Kochia scoparia), ragweed (common ragweed, Ambrosia elatior), Italian ryegrass (Lolium multiflorum), large (Lg) crabgrass (Digitaria sanguinalis), giant foxtail (Setaria faberii), momingglory (Ipomoea spp.), pigweed (Amaranthus retroflexus), velvetleaf (Abutilon theophrasti), wheat (Triticum aestivum), and corn (Zea mays) were planted into a blend of loam soil and sand and treated preemergence with a directed soil spray using test chemicals formulated in a non-phytotoxic solvent mixture which included a surfactant. At” for “At”

kochia (Kochia scoparia) = test: Test B pre-/postemergence plant response
Source text: as §1, with “Seeds of plant species selected from bamyardgrass (Echinochloa crus-galli), kochia (Kochia scoparia), ragweed (common ragweed, Ambrosia elatior), Italian ryegrass (Lolium multiflorum), large (Lg) crabgrass (Digitaria sanguinalis), giant foxtail (Setaria faberii), momingglory (Ipomoea spp.), pigweed (Amaranthus retroflexus), velvetleaf (Abutilon theophrasti), wheat (Triticum aestivum), and corn (Zea mays) were planted into a blend of loam soil and sand and treated preemergence with a directed soil spray using test chemicals formulated in a non-phytotoxic solvent mixture which included a surfactant. At” for “At”

[9] = system: ragweed (common ragweed, Ambrosia elatior); test: Test B pre-/postemergence plant response
Source text: as §1, with “Seeds of plant species selected from bamyardgrass (Echinochloa crus-galli), kochia (Kochia scoparia), ragweed (common ragweed, Ambrosia elatior), Italian ryegrass (Lolium multiflorum), large (Lg) crabgrass (Digitaria sanguinalis), giant foxtail (Setaria faberii), momingglory (Ipomoea spp.), pigweed (Amaranthus retroflexus), velvetleaf (Abutilon theophrasti), wheat (Triticum aestivum), and corn (Zea mays) were planted into a blend of loam soil and sand and treated preemergence with a directed soil spray using test chemicals formulated in a non-phytotoxic solvent mixture which included a surfactant. At” for “At”

[10] = system: wheat (Triticum aestivum); test: Test B pre-/postemergence plant response
Source text: as §1, with “Seeds of plant species selected from bamyardgrass (Echinochloa crus-galli), kochia (Kochia scoparia), ragweed (common ragweed, Ambrosia elatior), Italian ryegrass (Lolium multiflorum), large (Lg) crabgrass (Digitaria sanguinalis), giant foxtail (Setaria faberii), momingglory (Ipomoea spp.), pigweed (Amaranthus retroflexus), velvetleaf (Abutilon theophrasti), wheat (Triticum aestivum), and corn (Zea mays) were planted into a blend of loam soil and sand and treated preemergence with a directed soil spray using test chemicals formulated in a non-phytotoxic solvent mixture which included a surfactant. At” for “At”

[11] = system: giant foxtail (Setaria faberii); test: Test B pre-/postemergence plant response
Source text: as §1, with “Seeds of plant species selected from bamyardgrass (Echinochloa crus-galli), kochia (Kochia scoparia), ragweed (common ragweed, Ambrosia elatior), Italian ryegrass (Lolium multiflorum), large (Lg) crabgrass (Digitaria sanguinalis), giant foxtail (Setaria faberii), momingglory (Ipomoea spp.), pigweed (Amaranthus retroflexus), velvetleaf (Abutilon theophrasti), wheat (Triticum aestivum), and corn (Zea mays) were planted into a blend of loam soil and sand and treated preemergence with a directed soil spray using test chemicals formulated in a non-phytotoxic solvent mixture which included a surfactant. At” for “At”

corn (Zea mays) = test: Test B pre-/postemergence plant response
Source text: as §1, with “Seeds of plant species selected from bamyardgrass (Echinochloa crus-galli), kochia (Kochia scoparia), ragweed (common ragweed, Ambrosia elatior), Italian ryegrass (Lolium multiflorum), large (Lg) crabgrass (Digitaria sanguinalis), giant foxtail (Setaria faberii), momingglory (Ipomoea spp.), pigweed (Amaranthus retroflexus), velvetleaf (Abutilon theophrasti), wheat (Triticum aestivum), and corn (Zea mays) were planted into a blend of loam soil and sand and treated preemergence with a directed soil spray using test chemicals formulated in a non-phytotoxic solvent mixture which included a surfactant. At” for “At”

[12] = 125 g ai/ha, postemergence, 0 to 100 scale, 0 no effect, 100 complete control
[13] = Postemergence, 500 g ai/ha, 0 to 100 scale (0 no effect, 100 complete control)
[14] = Preemergence, 125 g ai/ha, 0 to 100 scale (0 no effect, 100 complete control)
[15] = Preemergence, 500 g ai/ha, 0 to 100 scale where 0 is no effect and 100 is complete control

FC(F)(F)c1csc(-c2ccccc2Oc2ncc(Cl)cn2)n1 [Compound 137]
Plant response rating, Blackgrass [1, 12]: 0
Plant response rating, Blackgrass [1, 13]: 0
Plant response rating, Galium [2, 12]: 0
Plant response rating, Galium [2, 13]: 20
Sedge, Umbrella plant response rating [3]: 0
Barnyardgrass plant response rating [4]: 0
Rice plant response rating (rice (Oryza sativa)): 0
Ducksalad plant response rating [5]: 20
Plant response rating, Barnyardgrass [6, 12]: 0
Plant response rating, Barnyardgrass [6, 13]: 10
Barnyardgrass plant response rating [6, 14]: 0
Plant response rating, Barnyardgrass [6, 15]: 10
Plant response rating, Pigweed [7, 12]: 30
Plant response rating, Pigweed [7, 13]: 90
Pigweed plant response rating [7, 14]: 0
Plant response rating, Pigweed [7, 15]: 20
Plant response rating, Ryegrass, Italian [8, 12]: 0
Plant response rating, Ryegrass, Italian [8, 13]: 0
Ryegrass, Italian plant response rating [8, 14]: 0
Plant response rating, Ryegrass, Italian [8, 15]: 0
Plant response rating, Kochia (kochia (Kochia scoparia); [12]): 0
Plant response rating, Kochia (kochia (Kochia scoparia); [13]): 60
Kochia plant response rating (kochia (Kochia scoparia); [14]): 0
Plant response rating, Kochia (kochia (Kochia scoparia); [15]): 10
Plant response rating, Ragweed [9, 12]: 0
Plant response rating, Ragweed [9, 13]: 0
Ragweed plant response rating [9, 14]: 0
Plant response rating, Ragweed [9, 15]: 0
Plant response rating, Wheat [10, 12]: 0
Plant response rating, Wheat [10, 13]: 0
Plant response rating, Foxtail, Giant [11, 12]: 0
Plant response rating, Foxtail, Giant [11, 13]: 20
Foxtail, Giant plant response rating [11, 14]: 0
Plant response rating, Foxtail, Giant [11, 15]: 0
Plant response rating, Corn (corn (Zea mays); [12]): 0
Plant response rating, Corn (corn (Zea mays); [13]): 20

FC(F)(F)c1csc(-c2ccccc2Oc2ncc(I)cn2)n1 [Compound 138]
Plant response rating, Blackgrass [1, 12]: 0
Plant response rating, Blackgrass [1, 13]: 0
Plant response rating, Galium [2, 12]: 0
Plant response rating, Galium [2, 13]: 0
Sedge, Umbrella plant response rating [3]: 0
Barnyardgrass plant response rating [4]: 0
Rice plant response rating (rice (Oryza sativa)): 0
Ducksalad plant response rating [5]: 20
Plant response rating, Barnyardgrass [6, 12]: 0
Plant response rating, Barnyardgrass [6, 13]: 0
Barnyardgrass plant response rating [6, 14]: 0
Plant response rating, Barnyardgrass [6, 15]: 0
Plant response rating, Pigweed [7, 12]: 0
Plant response rating, Pigweed [7, 13]: 0
Pigweed plant response rating [7, 14]: 0
Plant response rating, Pigweed [7, 15]: 0
Plant response rating, Ryegrass, Italian [8, 12]: 0
Plant response rating, Ryegrass, Italian [8, 13]: 0
Ryegrass, Italian plant response rating [8, 14]: 0
Plant response rating, Ryegrass, Italian [8, 15]: 0
Plant response rating, Kochia (kochia (Kochia scoparia); [12]): 0
Plant response rating, Kochia (kochia (Kochia scoparia); [13]): 0
Kochia plant response rating (kochia (Kochia scoparia); [14]): 0
Plant response rating, Kochia (kochia (Kochia scoparia); [15]): 0
Plant response rating, Ragweed [9, 12]: 0
Plant response rating, Ragweed [9, 13]: 0
Ragweed plant response rating [9, 14]: 0
Plant response rating, Ragweed [9, 15]: 0
Plant response rating, Wheat [10, 12]: 0
Plant response rating, Wheat [10, 13]: 0
Plant response rating, Foxtail, Giant [11, 12]: 0
Plant response rating, Foxtail, Giant [11, 13]: 0
Foxtail, Giant plant response rating [11, 14]: 0
Plant response rating, Foxtail, Giant [11, 15]: 0
Plant response rating, Corn (corn (Zea mays); [12]): 0
Plant response rating, Corn (corn (Zea mays); [13]): 0
